In patent publication US12479792B2, “Compositions of chelating molecules” (The Regents of the University of California, priority 2016, dated 2025):

Columns and labels:
[1] = Abergel et al., Inorganic chemistry 2009; given for comparison; cited from earlier work
[2] = same conditions; Abergel et al., Inorganic chemistry 2009; cited from earlier work
[3] = Deblonde et al. 2013; Sturzbecher-Hoehne et al. 2015; cited from earlier work
[4] = Eu(III) complex formation constants by incremental spectrophotometric titration; format: binding
Protocol: (§1) Metal, Chelator Solutions. The trivalent lanthanide Ln(III) working stock solutions were prepared in standardized 0.1 M HCl. A Zr(IV) stock solution was prepared by dissolving ZrCl4 in 3.0 M H2SO4, to prevent hydrolysis. The metal salt ZrCl4 was handled and stored in a glovebox kept under inert atmosphere. The Zr(IV) stock solution was standardized against EDTA, with xylene orange as the indicator (Welcher, F. J. The analytical uses of ethylenediamine tetraacetic acid; 1958). A Th(IV) stock solution was prepared in 0.1 M H2SO4. Stock solutions (4 mM) of Ent, and 3,4,3-LI(CAM) were prepared by direct dissolution of a weighed portion of chelator in DMSO and aliquots were removed prior to each set of experiments.
(§2) Solution Thermodynamics. All titrant solutions were degassed by boiling for 1 h while being purged under Ar. Carbonate-free 0.1 M KOH was prepared from concentrate (J.T Baker Dilut-It) and was standardized by titrating against 0.1 M potassium hydrogen phthalate (99.95%, Sigma Aldrich). Solutions of 0.1 M HCl were similarly prepared and were standardized by titrating against TRIS (99.9%, J.T. Baker). The glass electrode (Metrohm-Micro Combi-response to [H+]) used for the pH measurements was calibrated at 25.0° C. and at an ionic strength of 0.1 M (KCl) before each potentiometric or spectrophotometric titration. The calibration data were analyzed using the program GLEE (Gans & O'Sullivan, Talanta, 2000, 51 (1): 33-37) to refine for the E° and slope. All thermodynamic measurements were conducted at 25.0° C., in 0.1 M KCl supporting electrolyte under positive Ar gas pressure. The automated titration system was controlled by an 867 pH Module (Metrohm). […]
(§3) Incremental Spectrophotometric Titrations. […] For the 3,4,3-LI(CAM) protonation (and Eu(III)-3,4,3-LI(CAM) complexes), titrations were performed with an initial concentration of 50 μM of 3,4,3-LI(CAM) (and 50 μM of Eu(III)) resulting in absorbance values included between 0 and 1.0 throughout the titration. […]

[5] = Zr(IV) complex formation constants by spectrophotometric competition titration in the presence of DTPA; format: binding
Protocol: as §1, §2, §3

[6] = Th(IV) complex formation constants by spectrophotometric competition titration in the presence of DTPA; format: binding
Protocol: as §1, §2, §3

| SMILES | overall acidity ΣpKa5-8 [1] | pH at which Eu(III) species already appear [2] | pH at which 4+ metal complexes are formed [3] | log β110, stability constant of Eu(III) complex ([4]; I=0.1 M (KCl), T=25° C.) | only Eu(III) species present at pH 7.4 ([4]; pH 7.4, speciation diagram, 1 equivalent of Eu(III)) | pH at which Eu(III) complexation starts ([4]; speciation diagram, 1 equivalent of Eu(III), [Eu]=[CAM]=10 μM, T=25° C., I=0.1 M, Hyss) | log β110, stability constant of Zr(IV) complex ([5]; I=0.1 M (KCl), T=25° C.) | predominant Zr(IV) species at physiological pH ([5]; pH 7.4, speciation diagram, 1 equivalent of Zr(IV)) | pH at which Zr(IV) complexes start forming ([5]; speciation diagram, 1 equivalent of Zr(IV), [Zr]=[CAM]=10 μM, T=25° C., I=0.1 M, Hyss) | log β110, stability constant of Th(IV) complex ([6]; I=0.1 M (KCl), T=25° C.) | predominant Th(IV) species at physiological pH ([6]; pH 7.4, speciation diagram, 1 equivalent of Th(IV)) | pH at which Th(IV) complexes start forming ([6]; speciation diagram, 1 equivalent of Th(IV), [Th]=[CAM]=10 μM, T=25° C., I=0.1 M, Hyss) |
| --- | --- | --- | --- | --- | --- | --- | --- | --- | --- | --- | --- | --- |
| O=C(NCCCN(CCCCN(CCCNC(=O)c1cccc(=O)n1O)C(=O)c1cccc(=O)n1O)C(=O)c1cccc(=O)n1O)c1cccc(=O)n1O [3,4,3-LI(1,2-HOPO)] | 21.2 | 1 | < 0 | – | – | – | – | – | – | – | – | – |
| O=C(NCCCN(CCCCN(CCCNC(=O)c1cccc(O)c1O)C(=O)c1cccc(O)c1O)C(=O)c1cccc(O)c1O)c1cccc(O)c1O [3,4,3-LI(CAM)] | – | – | – | 29.7 | [Eu^IIILH]^4− | 5 | 57.3 | [MIVLH]^3− and [MIVL]^4− | ~3 | 47.7 | [MIVLH]^3− and [MIVL]^4− | ~3 |
